# Laboratory results reported in US20250084371A1, “CELL MONOLAYER BLOCKING AGENTS AND USES THEREOF” (LUMICKS CA HOLDING B.V., priority 2021, published 2025).
# How the values were obtained:
# PLL-coated chips = assay: Binding of Jurkat cells to PLL-coated chips after blocking (z-Movi avidity, no target cells); type: cell-based
# Protocol: (§1) z-Movi® chips (obtained and as available from LUMICKS (<https://lumicks.com/products/z-movi-cell-interaction-studies/>) were coated with Poly-L-Lysine (#P4707-50ML, Sigma) diluted 1:5 in PBS for 10 minutes at room temperature, or with human Fibronectin (#F0895, Sigma) at 0.1 mg/mL overnight at room temperature. The following day the target cells were seeded in serum free RPMI medium, incubated 1 h, and subsequently the medium replaced with complete RPMI medium. The chips were incubated for an additional hour before the blocking reaction. The effector cells were stained with CellTrace™ Far Red dye (Thermo Fisher Scientific) at 1 μM for 15 minutes in PBS at 37° C., then resuspended at 10 million/mL in complete medium and used for the avidity experiments. The stained effector cells (i.e. cells of interest) were introduced in the target cell-seeded flow cell, incubated for 5 minutes, and then a 1 to 1000 pN force ramp was applied throughout 2.5 minutes using z-Movi® operated with the Oceon V1.2 software. At the end of the avidity measurements, the monolayer was stained with a Trypan Blue solution to qualitatively assess the target cell viability. The avidity experiment analysis was performed using Oceon V1.2. […]
# Raji cells [1] = assay: Avidity of UNT or FMC63-CAR primary T cells to Raji seeded PLL-coated chips after blocking; type: cell-based
# Protocol: Untransduced or FMC63-transduced primary CAR T cells were obtained from ProMab Biotechnologies Inc. (Anti-CD19-TF-CD28-CD3z (PMC-152)) propagated with CD3/CD28 dynabeads (Thermo Fisher Scientific) and 90 IU/mL of IL-2 (Miltenyi Biotec), or Untransduced or FMC63 CAR transduced Jurkat were used (Creative Biolabs).
# (§2) z-Movi® chips (obtained and as available from LUMICKS (<https://lumicks.com/products/z-movi-cell-interaction-studies/>) were coated with Poly-L-Lysine (#P4707-50ML, Sigma) diluted 1:5 in PBS for 10 minutes at room temperature, or with human Fibronectin (#F0895, Sigma) at 0.1 mg/mL overnight at room temperature. The following day the target cells were seeded in serum free RPMI medium, incubated 1 h, and subsequently the medium replaced with complete RPMI medium. The chips were incubated for an additional hour before the blocking reaction. The effector cells were stained with CellTrace™ Far Red dye (Thermo Fisher Scientific) at 1 μM for 15 minutes in PBS at 37° C., then resuspended at 10 million/mL in complete medium and used for the avidity experiments. The stained effector cells (i.e. cells of interest) were introduced in the target cell-seeded flow cell, incubated for 5 minutes, and then a 1 to 1000 pN force ramp was applied throughout 2.5 minutes using z-Movi® operated with the Oceon V1.2 software. At the end of the avidity measurements, the monolayer was stained with a Trypan Blue solution to qualitatively assess the target cell viability. The avidity experiment analysis was performed using Oceon V1.2.
# (§3) The MS(PEG)4 or BS(PEG)5 (Thermo Fisher Scientific) (see FIG. 2) were dissolved in anhydrous DMSO (Merck) then diluted in PBS to obtain a final concentration of 5 mM or as otherwise indicated. The target cell-seeded chips (or coated only with PLL or fibronectin) were rinsed with PBS before introducing the blocking solution (or a PBS solution with DMSO as control sample). The chips were incubated for 15 minutes at room temperature and the reaction was stopped with TBS (50 mM Tris pH7.4, 150 mM NaCl). The chips were subsequently equilibrated with complete medium and used for avidity measurements. Furthermore, blocking was also tested with incubations of 1 hour with serum free RPMI medium, 20% fetal bovine serum (FBS), 50% FBS, 50% human serum (HS), 10% bovine serum albumin (BSA), NALM6 condition medium.
# We then performed the experiments with the blocking agents with primary T cells expressing a FMC63 CAR (or not) layered on Raji cells. We observed that the observations made with Jurkat cells were recapitulated showing a considerable improvement of the negative/positive window on the chips subjected to the blocking reaction (FIG. 7).
# Raji cells [2] = assay: Monolayer integrity/viability (Trypan Blue) of Raji seeded PLL-coated chips after blocking; type: cell-based; details: Raji on PLL, vs DMSO vehicle
# Protocol: as §1
# Raji cells [3] = assay: Avidity of UNT or FMC63-CAR Jurkat cells to Raji seeded PLL-coated chips after blocking; type: cell-based; details: for percentage of effector cells bound to the target cells at the end of the force ramp (1000 pN) / difference in the positive/negative window: PLL; for percentage of effector cells bound to the target cells at the end of the force ramp (1000 pN): mean n=2; for difference in the positive/negative window: CAR minus UNT bound at 1000 pN, Raji; for binding of the CAR sample (cells bound) after blocking: FMC63 CAR Jurkat, from about 80% without blocking; for binding of the CAR sample (cells bound) after blocking / background binding of the UNT sample (cells bound) after blocking: Raji-seeded PLL chips; for background binding of the UNT sample (cells bound) after blocking: UNT Jurkat, from about 50% without blocking
# Protocol: as §2, §3
# We next validated the use of NHS-based blockers to reduce background binding of the effector cells in the presence of the monolayer. We used as cells of interest a Jurkat cell line transduced to express the FMC63 Chimeric Antigen Receptor (CAR) or untransduced (UNT) as control cells. As target cells we used the Raji cell line, endogenously expressing the CD19 antigen, seeded on PLL coated chips.
# IFNγ = IFNγ release assay (ELISA), primary T cells co-incubated with blocked Raji cells; type: cell-based, human; details: 1:1, 7 h
# Protocol: Target cells were treated with DMSO or blocking agent using the protocol above, resuspended at 1 million/mL in RPMI complete medium and mixed at 1:1 ratio with the indicated effector cells. For the IFNγ release assay the samples were incubated for 7 h in the incubator before spinning down and use of the supernatant to perform the ELISA (Biolegend, ELISA MAX™ Deluxe Set Human IFNγ). For the CD69 assay, the target and effector cells prepared as described above were co-incubated for 5 h in the incubator before being stained using anti-CD3 and anti-CD69 antibodies (clone SK7 and FN50, Biolegend).
# CD69 activation marker = assay: CD69 activation assay, Jurkat co-incubated with blocked Raji cells; type: cell-based; details: 1:1, 4 h
# Protocol: Target cells were treated with DMSO or blocking agent using the protocol above, resuspended at 1 million/mL in RPMI complete medium and mixed at 1:1 ratio with the indicated effector cells. For the IFNγ release assay the samples were incubated for 7 h in the incubator before spinning down and use of the supernatant to perform the ELISA (Biolegend, ELISA MAX™ Deluxe Set Human IFNγ). […]
# [4] = test system: human fibronectin-coated chips; assay: Binding of Jurkat cells to human fibronectin-coated chips after blocking (z-Movi avidity, no target cells); type: cell-based
# Protocol: as §1
# Raji cells [5] = assay: Avidity of UNT or FMC63-CAR primary T cells to Raji covalent monolayer on PLL-coated chips; type: cell-based; details: 10 mM crosslinker, mean n=2
# Protocol: Untransduced or FMC63-transduced primary CAR T cells were obtained from ProMab Biotechnologies Inc. (Anti-CD19-TF-CD28-CD3z (PMC-152)) propagated with […] CD3/CD28 dynabeads (Thermo Fisher Scientific) and 90 IU/mL of IL-2 (Miltenyi Biotec). Raji cells were used as target cells. Primary CAR-T cells were cultured in RPMI+Glutamax supplemented with 50 μM β-Mercaptoethanol, 5% heat inactivated human serum, and Penicillin-Streptomycin.
# z-Movi® chips (obtained and as available from LUMICKS) were coated with Poly-L-Lysine (#P4707-50ML, Sigma) diluted 1:5 in PBS for 10 minutes at room temperature. The following day the target cells were seeded in PBS, incubated 0.75 h, and subsequently the monolayers were left untreated or reacted with BS(PEG)9. For negative control the PLL coated chips were reacted with 5 mM MS(PEG)4 before seeding the Raji cells. The effector cells were stained with CellTrace™ Far Red dye (Thermo Fisher […] Scientific) at 1 μM for 15 minutes in PBS at 37° C., then resuspended at 10 million/mL in complete medium and used for the avidity experiments. The stained effector cells (i.e. cells of interest) were introduced in the target cell-seeded flow cell, incubated for 5 minutes, and then a 1 to 1000 pN force ramp was applied throughout 2.5 minutes using z-Movi® operated with the Oceon® V1.2 software. […]
# Hela-CD19 cells [6] = assay: Avidity of UNT or FMC63-CAR Jurkat to Hela-CD19 seeded fibronectin-coated chips after blocking; type: cell-based; details: Hela-CD19 on human fibronectin, blocker 5 mM; for percentage of effector cells bound to the target cells at the end of the force ramp (1000 pN): mean n=2
# Protocol: as §2
# as §3, with “medium. […]” for “medium.”
# Hela-CD19 cells [7] = assay: Avidity of UNT or FMC63-CAR Jurkat to Hela-CD19 seeded PLL-coated chips after blocking; type: cell-based; details: Hela-CD19 on PLL, blocker 5 mM; for percentage of effector cells bound to the target cells at the end of the force ramp (1000 pN): mean n=2
# Protocol: as §2
# as §3, with “medium. […]” for “medium.”
# [8] = CAR Jurkat + Raji treated with 5 mM blocker 15 minutes
# [9] = UNT Jurkat + Raji treated with 5 mM blocker 15 minutes
structure (smiles),measurement,setting,value
O=C(CCOCCOCCOCCOCCOCCC(=O)ON1C(=O)CCC1=O)ON1C(=O)CCC1=O [BS(PEG)5],percentage of Jurkat cells bound at the end (1000 pN) of the avidity measurement,PLL-coated chips; blocking agent 1 mM,92.9%
same,percentage of Jurkat cells bound at the end (1000 pN) of the avidity measurement,PLL-coated chips; blocking agent 5 mM,1.2%
same,percentage of effector cells bound to the target cells at the end of the force ramp (1000 pN),"Raji cells [1]; CAR primary T cells + Raji, blocker 4.5 mM, mean n=2 (FIG. 7A)",66.3%
same,percentage of effector cells bound to the target cells at the end of the force ramp (1000 pN),"Raji cells [1]; UNT primary T cells + Raji, blocker 4.5 mM, mean n=2 (FIG. 7A)",39.9%
same,"monolayer integrity (confluency, cell morphology, staining)",Raji cells [2]; blocker 4.5 mM,"No differences in target cell monolayer confluency, cell morphology or staining could be detected"
same,percentage of effector cells bound to the target cells at the end of the force ramp (1000 pN),"Raji cells [3]; CAR (FMC63-transduced) effector cells + Raji, blocker 4.5 mM",78.3%
same,difference in the positive/negative window,Raji cells [3]; blocker 4.5 mM,62.7%
same,binding of the CAR sample (cells bound) after blocking,Raji cells [3],about 70%
same,percentage of effector cells bound to the target cells at the end of the force ramp (1000 pN),"Raji cells [3]; UNT (untransduced) effector cells + Raji, blocker 4.5 mM",15.6%
same,background binding of the UNT sample (cells bound) after blocking,Raji cells [3],about 20%
same,amount of IFNγ in co-culture supernatants,IFNγ; CAR primary T cells + Raji treated with 4.5 mM blocker 15 minutes,1633 pg/mL
same,amount of IFNγ in co-culture supernatants,IFNγ; UNT primary T cells + Raji treated with 4.5 mM blocker 15 minutes,11 pg/mL
same,percentage of CD69 positive cells,CD69 activation marker; [8],30%
same,percentage of CD69 positive cells,CD69 activation marker; [9],0.6%
same,percentage of bound Jurkat cells at the end of the force ramp (1000 pN),[4]; blocking agent 1 mM,52.8%
same,percentage of bound Jurkat cells at the end of the force ramp (1000 pN),[4]; blocking agent 5 mM,43.2%
O=C(CCOCCOCCOCCOCCOCCOCCOCCOCCOCCC(=O)ON1C(=O)CCC1=O)ON1C(=O)CCC1=O [BS(PEG)9],percentage of effector cells bound to the target cells at the end of the force ramp (1000 pN),Raji cells [5]; CAR primary T cells + Raji,61.4%
same,percentage of effector cells bound to the target cells at the end of the force ramp (1000 pN),Raji cells [5]; UNT primary T cells + Raji,10.3%
COCCOCCOCCOCCC(=O)ON1C(=O)CCC1=O [MS(PEG)4],percentage of effector cells bound to the target cells at the end of the force ramp (1000 pN),"Raji cells [1]; CAR primary T cells + Raji, mean n=3 (FIG. 7B)",67.8%
same,percentage of effector cells bound to the target cells at the end of the force ramp (1000 pN),"Raji cells [1]; UNT primary T cells + Raji, mean n=3 (FIG. 7B)",42.6%
same,"monolayer integrity (confluency, cell morphology, staining)",Raji cells [2]; blocker 5 mM,"No differences in target cell monolayer confluency, cell morphology or staining could be detected"
same,percentage of effector cells bound to the target cells at the end of the force ramp (1000 pN),Hela-CD19 cells [6]; CAR Jurkat,70.1%
same,pos/neg window after the blocking reaction,Hela-CD19 cells [6]; control window 33.3%,53.3%
same,percentage of effector cells bound to the target cells at the end of the force ramp (1000 pN),Hela-CD19 cells [6]; UNT Jurkat,16.8%
same,percentage of effector cells bound to the target cells at the end of the force ramp (1000 pN),"Raji cells [3]; CAR (FMC63-transduced) effector cells + Raji, blocker 5 mM",84.7%
same,difference in the positive/negative window,Raji cells [3]; blocker 5 mM,51.9%
same,binding of the CAR sample (cells bound) after blocking,Raji cells [3],about 70%
same,percentage of effector cells bound to the target cells at the end of the force ramp (1000 pN),"Raji cells [3]; UNT (untransduced) effector cells + Raji, blocker 5 mM",32.8%
same,background binding of the UNT sample (cells bound) after blocking,Raji cells [3],about 20%
same,percentage of effector cells bound to the target cells at the end of the force ramp (1000 pN),Hela-CD19 cells [7]; CAR Jurkat,68%
same,pos/neg window after the blocking reaction,Hela-CD19 cells [7]; control window 49.4%,63%
same,percentage of effector cells bound to the target cells at the end of the force ramp (1000 pN),Hela-CD19 cells [7]; UNT Jurkat,5%
same,percentage of CD69 positive cells,CD69 activation marker; [8],27%
same,percentage of CD69 positive cells,CD69 activation marker; [9],0.8%
